From patent publication US20230047766A1, “MEDICAL DEVICE, THERAPEUTIC METHOD, AND DIAGNOSTIC METHODS FOR THE TREATMENT AND PREVENTION OF VASOSPASM” (Sylvian Inc., priority 2020, published 2023)

Tests used:
[1] = tested on: ET-1; conditions: intravenous; clinical trial databases; cited from earlier work
[2] = tested on: dogs; assay: intrathecal (IT) administration to dogs: Evans blue distribution and maximum dose volume of saline for 30 minutes; type: in vivo; conditions: anesthetized dogs, approx. 1 mL of 0.5% solution, catheter near the bregma
Protocol: A second experiment was conducted to establish a procedure of IT administration to dogs to determine the maximum dose volume by IT administration of saline for 30 minutes. An approximately 1 mL of 0.5% Evans blue solution was administered to 4 anesthetized dogs via a catheter placed in the subarachnoid space near the bregma. After the administration, the animals were necropsied, and the CNS was macroscopically observed to verify the distribution of the Evans blue solution. In addition, 8 or 4 mL of saline, which is considered to be respectively approximately […] of a total volume of CSF, was administered to 6 unanesthetized dogs under a restrained condition. Saline was administered during the dosing and until 1 hour after dosing. The animals were necropsied on the next day of dosing and the CNS were macroscopically observed.

[3] = tested on: rats; assay: intrathecal (IT) administration to rats: Evans blue distribution and maximum dose volume of saline for 30 minutes; conditions: rat, in vivo
Protocol: A first experiment was conducted to establish a procedure of intrathecal (IT) administration to rats to determine the maximum dose volume by IT administration of saline for 30 minutes. An approximately 30 μL of 1.0% Evans blue solution was administered to 6 anesthetized rats via a catheter placed in the subarachnoid space in the cisternal magna. After administration, the animals were necropsied, and the central nervous system (CNS) including the brain and cervical spinal cord were macroscopically observed to verify the distribution of Evans blue solution. In addition, 0.125, 0.25, 0.5, and 1.0 mL of saline, which is considered to be respectively approximately ½, equal, 2-fold, and 4-fold of a total volume of CSF in rats, was administered to 1 or 3 unanesthetized rats per dose volume. Saline was administered for 30 minutes using an infusion pump. Clinical signs were observed during the dosing and until 1 hour after dosing. The animals were necropsied on the next day of dosing and the CNS were macroscopically observed.

[4] = tested on: vasospasm associated with SAH; conditions: animal studies; high concentrations (~7%) in cranial ventricles; cited from earlier work
[5] = solubility of trehalose in water (saturated trehalose solution); type: physicochemical; conditions: 20° C.
Protocol: FIGS. 4A-4G are graphs showing simulations of trehalose concentrations in human CSF to determine clinical dose regimens. The simulations assume that a CSF volume of a human is approximately 140 mL and that the CSF exchange rate is approximately […]. […] In the simulations, the trehalose is administered by a bolus injection, and is equally distributed in the CSF immediately after the injection. For the simulations below, a saturated trehalose solution was prepared by dissolving 68.9 g of trehalose per 100 g of water at 20° C.
FIG. 4A is a graph 400 showing a simulation of trehalose concentration 410 in human CSF to determine a clinical dose regimen. In this example simulation, 9.8 g of trehalose was estimated to be required to achieve a 7 wt % trehalose concentration in the CSF immediately after injection.

Compound: COc1ccccc1Oc1c(NS(=O)(=O)c2ccc(C)cn2)nc(-c2ccnc(-c3nnn[nH]3)c2)nc1OCCO [Clozasentan]
- effect on vasospasm [1]: reversal of vasospasms in large arteries

Compound: Cc1cc(-c2ccc(/N=N/c3ccc4c(S(=O)(=O)O)cc(S(=O)(=O)O)c(N)c4c3O)c(C)c2)ccc1/N=N/c1ccc2c(S(=O)(=O)O)cc(S(=O)(=O)O)c(N)c2c1O [Evans blue solution, Evans blue]
- distribution after IT administration (macroscopic observation) [2]: distributed to the subarachnoid space of the whole cerebral cortex
- distribution after IT administration (macroscopic observation) [3]: distributed to the subarachnoid space of the cisterna magna, the bottom of the brain, and the cervical spinal cord in all animals

Compound: OC[C@H]1O[C@H](O[C@H]2O[C@H](CO)[C@@H](O)[C@H](O)[C@H]2O)[C@H](O)[C@@H](O)[C@@H]1O [trehalose]
- effect on inflammatory cascade and vasospasm associated with SAH [4]: significant inhibition of the inflammatory cascade and vasospasm
- trehalose dissolved for a saturated solution [5]: 68.9 g per 100 g of water
